According to patent publication EP0674645B1, “CEPHEM COMPOUNDS WITH ANTIMICROBIAL ACTIVITY” (FUJISAWA PHARMACEUTICAL CO., LTD., priority 1992, dated 1994):
Structures can show the parent of a compound that is named as a salt.

Tests used:
Test in all cases: In vitro antibacterial activity, two-fold agar-plate dilution method (MIC)
Format in all cases: cell-based
E. coli 31 = details: Escherichia coli, heart infusion agar, 10^6 viable cells per ml, 37°C for 20 hours
Procedure: (§1) In vitro antibacterial activity was determined by the two-fold agar-plate dilution method as described below. One loopful of an overnight culture of each test strain in Trypticase-soy broth (10^6 viable cells per ml) was streaked on heart infusion agar (HI-agar) containing graded concentrations of representative test compound, and the minimal inhibitory concentration (MIC) was expressed in terms of µg/ml after incubation at 37°C for 20 hours.

P. aeruginosa 2 = details: Pseudomonas aeruginosa, heart infusion agar, 10^6 viable cells per ml, 37°C for 20 hours
Procedure: as §1

S. aureus 2538 = details: Staphylococcus aureus, heart infusion agar, 10^6 viable cells per ml, 37°C for 20 hours
Procedure: as §1

MIC (E. coli 31): ≤ 0.025 µg/mL | MIC (P. aeruginosa 2): 0.39 µg/mL | MIC (S. aureus 2538): 3.13 µg/mL
SMILES: CCO/N=C(\C(=O)N[C@@H]1C(=O)N2C(C(=O)[O-])=C(C[n+]3ccc(N)n3CCO)CS[C@H]12)c1nsc(N)n1 [7β-[2-(5-Amino-1,2,4-thiadiazol-3-yl)-2-ethoxyiminoacetamido]-3-[3-amino-2-(2-hydroxyethyl)-1-pyrazolio]methyl-3-cephem-4-carboxylate hydrochloride (syn isomer)]
